According to patent publication US7776862B2, “Pyridyl and phenyl substituted piperazine-piperidines with CXCR3 antagonist activity” (Schering Corporation, priority 2005, dated 2010):

target: T1, human CXCR3 (N-delta 4) (Homo sapiens, UniProt P49682); assay: Human CXCR3 (N-delta 4) scintillation proximity assay (SPA), [125I] IP-10 binding; conditions: IC50 rating; Ba/F3-hCXCR3 (N-delta 4) membranes, 25 pM [125I] IP-10
T1 construct: CD8 leader; Flag tag; expressed in transfected cells; membranes used
T1 sequence (P49682 5-368 limits assumed): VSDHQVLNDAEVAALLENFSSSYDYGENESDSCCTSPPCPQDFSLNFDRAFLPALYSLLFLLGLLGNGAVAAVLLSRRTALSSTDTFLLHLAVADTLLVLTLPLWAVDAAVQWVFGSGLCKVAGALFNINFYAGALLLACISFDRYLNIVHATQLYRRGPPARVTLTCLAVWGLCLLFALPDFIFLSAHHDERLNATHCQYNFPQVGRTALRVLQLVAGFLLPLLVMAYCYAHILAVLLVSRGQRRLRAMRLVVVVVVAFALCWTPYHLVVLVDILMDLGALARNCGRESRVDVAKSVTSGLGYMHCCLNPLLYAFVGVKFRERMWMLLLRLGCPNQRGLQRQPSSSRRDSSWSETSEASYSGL
In short: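 IP-10 and compound titrations added together. The receptor source was SPA beads bearing membranes from Ba/F3 cells transfected with human CXCR3 (N-delta 4) carrying a CD8 leader and Flag tag.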

| IC50 | Compound |
| --- | --- |
| 0.025 to 0.1 µM | CC[C@H]1CN(c2ncc(C(=O)NC(C)C)cc2Cl)CCN1C1CCN(C(=O)c2ccc(Cl)cc2)CC1 [compound 160] |
| 0.025 to 0.1 µM | O=C(NCc1ccc(Cl)cc1)c1cnc(N2CCN(C3CCN(Cc4ccc(Cl)c(F)c4)CC3)CC2)c(Cl)c1 [compound 161] |
| < 0.025 µM | O=C(NCc1ccc(Cl)c(Cl)c1)c1cnc(N2CCN(C3CCN(Cc4ccc([N+](=O)[O-])cc4)CC3)CC2)c(Cl)c1 [compound 162] |
| < 0.025 µM | CCNC(=O)c1cnc(N2CCN(C3CCN(Cc4ccc(Cl)cc4)CC3(C)C)CC2)c(Cl)c1 (stereo not shown) [compound 163] |
| < 0.025 µM | O=C(NCc1ccc(F)c(F)c1)c1cnc(N2CCN(C3CCN(Cc4ccc([N+](=O)[O-])cc4)CC3)CC2)c(Br)c1 [compound 164] |
| > 0.1 µM | O=C(NCCOc1ccccc1)c1cnc(N2CCN(C3CCN(Cc4ccc(-c5ccccc5)cc4)CC3)CC2)c(Cl)c1 [compound 165] |
| > 0.1 µM | O=C(NCc1ccccc1Cl)c1cnc(N2CCN(C3CCN(Cc4ccc(Cl)cc4)CC3)CC2)c(Cl)c1 [compound 166] |
| > 0.1 µM | O=C(NCC1CC1)c1cnc(N2CCN(C3CCN(Cc4ccc(Cl)cc4)CC3)CC2)c(Cl)c1 [compound 167] |
| > 0.1 µM | O=C(NC1CCCC1)c1cnc(N2CCN(C3CCN(Cc4ccc(Cl)cc4)CC3)CC2)c(Cl)c1 [compound 168] |
| > 0.1 µM | O=C(NCCOc1ccccc1)c1cnc(N2CCN(C3CCN(Cc4ccc(OC(F)(F)F)cc4)CC3)CC2)c(Cl)c1 [compound 169] |
| > 0.1 µM | O=C(NCc1ccc(F)c(F)c1)c1cnc(N2CC3CC2CN3C2CCN(Cc3ccc(Cl)cc3)CC2)c(Cl)c1 (stereo not shown) [compound 170] |
| 0.025 to 0.1 µM | CC(NC(=O)c1cnc(N2CCN(C3CCN(Cc4ccc(Cl)cc4)CC3)CC2)c(Cl)c1)c1ccc(Cl)cc1 (stereo not shown) [compound 171] |
| > 0.1 µM | CC(c1ccc(C#N)cc1)N1CCC(N2CCN(c3ncc(C(=O)NCc4ccc(F)c(F)c4)cc3Cl)CC2)CC1 (stereo not shown) [compound 172] |
| > 0.1 µM | C[C@@H]1CN(C2CCN(Cc3ccc(C#N)cc3)CC2)CCN1c1ncc(C(=O)NCc2ccc(Cl)c(Cl)c2)cc1Cl [compound 173] |
| 0.025 to 0.1 µM | C[C@@H]1CN(C2CCN(Cc3ccc([N+](=O)[O-])cc3)CC2)CCN1c1ncc(C(=O)NCc2ccc(Cl)c(Cl)c2)cc1Cl [compound 174] |
| 0.025 to 0.1 µM | C[C@H]1CN(C2CCN(Cc3ccc(Cl)cc3)CC2)CCN1c1ncc(C(=O)NCc2ccc(Cl)c(Cl)c2)cc1Cl [compound 175] |
| > 0.1 µM | O=C(NCC1COc2ccccc2O1)c1cnc(N2CCN(C3CCN(Cc4ccc(Cl)cc4)CC3)CC2)c(Br)c1 (stereo not shown) [compound 176] |
| > 0.1 µM | CCCCNC(=O)c1cnc(N2CCN(C3CCN(Cc4ccc(Cl)cc4)CC3)CC2)c(Cl)c1 [compound 177] |
| > 0.1 µM | O=C(NCC(c1ccccc1)c1ccccc1)c1cnc(N2CCN(C3CCN(Cc4ccc(Cl)cc4)CC3)CC2)c(Br)c1 [compound 178] |
| > 0.1 µM | CC1(C)C2CCC(CNC(=O)c3cnc(N4CCN(C5CCN(Cc6ccc(Cl)cc6)CC5)CC4)c(Br)c3)C1C2 (stereo not shown) [compound 179] |
| > 0.1 µM | CC(C)NC(=O)c1cnc(N2CCN(C3CCN(Cc4ccc(Cl)cc4)CC3)CC2)c(Cl)c1 [compound 180] |

| IC50 | Compound |
| --- | --- |
| > 0.1 µM | CC(C)CNC(=O)c1cnc(N2CCN(C3CCN(Cc4ccc(Cl)cc4)CC3)CC2)c(Cl)c1 [compound 181] |
| < 0.025 µM | O=C(NCc1ccc(F)c(F)c1)c1cnc(N2CCN(C3CCN(Cc4ccc(Cl)cc4)CC3)CC2)c(I)c1 [compound 182] |
| > 0.1 µM | Cc1ccc(CN2CCC(N3CCN(c4ncc(C(=O)NCc5ccc(Cl)c(Cl)c5)cc4Cl)CC3)CC2)cc1 [compound 183] |
| 0.025 to 0.1 µM | O=C(NCC1CCCCC1)c1cnc(N2CCN(C3CCN(Cc4ccc(Cl)cc4)CC3)CC2)c(Cl)c1 [compound 184] |
| < 0.025 µM | CC1CN(c2ncc(C(=O)NCc3ccc(Cl)c(Cl)c3)cc2Cl)CCN1C1CCN(Cc2ccc(Cl)cc2)CC1 (stereo not shown) [compound 185] |
| < 0.025 µM | CC1CN(c2ncc(C(=O)NCc3ccc(Cl)c(Cl)c3)cc2Cl)CCN1C1CCN(Cc2ccc([N+](=O)[O-])cc2)CC1 (stereo not shown) [compound 186] |
| < 0.025 µM | CC1CN(c2ncc(C(=O)NCc3ccc(F)c(F)c3)cc2Cl)CCN1C1CCN(Cc2ccc([N+](=O)[O-])cc2)CC1 (stereo not shown) [compound 187] |
| 0.025 to 0.1 µM | CC1CN(c2ncc(C(=O)NCc3ccc(F)c(F)c3)cc2Cl)CCN1C1CCN(Cc2ccc(Cl)cc2)CC1 (stereo not shown) [compound 188] |
| > 0.1 µM | O=C(NC1CCCC1)c1cnc(N2CCN(C3CCN(Cc4ccc(Cl)cc4)CC3)CC2)c(Br)c1 [compound 189] |
| > 0.1 µM | N#Cc1ccc(CN2CCC(N3CCN(c4ncc(C(=O)NC5CCCC5)cc4Cl)CC3)CC2)cc1 [compound 190] |
| > 0.1 µM | O=C(NC1CCCCC1)c1cnc(N2CCN(C3CCN(Cc4ccc(Cl)cc4)CC3)CC2)c(Cl)c1 [compound 191] |
| > 0.1 µM | CCCNC(=O)c1cnc(N2CCN(C3CCN(Cc4ccc(Cl)cc4)CC3)CC2)c(Cl)c1 [compound 192] |
| 0.025 to 0.1 µM | N#Cc1ccc(C(=O)N2CCC(N3CCN(c4ncc(C(=O)NCC5CCCCC5)cc4Br)CC3)CC2)cc1 [compound 193] |
| 0.025 to 0.1 µM | O=C(NCC1CCCCC1)c1cnc(N2CCN(C3CCN(Cc4ccc(Cl)cc4)CC3)CC2)c(Br)c1 [compound 194] |
| > 0.1 µM | COCCNC(=O)c1cnc(N2CCN(C3CCN(Cc4ccc(Cl)cc4)CC3)[C@@H](CC(C)C)C2)c(Cl)c1 [compound 195] |
| > 0.1 µM | CC(C)C[C@H]1CN(c2ncc(C(=O)NC(C)C)cc2Cl)CCN1C1CCN(Cc2ccc(Cl)cc2)CC1 [compound 196] |
| 0.025 to 0.1 µM | CC(C)C[C@H]1CN(c2ncc(C(=O)NCC3CCCCC3)cc2Cl)CCN1C1CCN(Cc2ccc(Cl)cc2)CC1 [compound 197] |
| > 0.1 µM | CNC(=O)c1cnc(N2CCN(C3CCN(Cc4ccc(Cl)cc4)CC3)[C@@H](CC(C)C)C2)c(Cl)c1 [compound 198] |
| > 0.1 µM | CC(C)C[C@H]1CN(c2ncc(C(=O)NCc3ccc(F)c(F)c3)cc2Cl)CCN1C1CCN(Cc2ccc(Cl)cc2)CC1 [compound 199] |
| > 0.1 µM | Cc1cc(C(=O)NCc2ccc(F)c(F)c2)cnc1N1CCN(C2CCN(Cc3ccc(Cl)cc3)CC2)CC1 [compound 200] |
| > 0.1 µM | Cc1cc(C(=O)NCc2ccc(Cl)c(Cl)c2)cnc1N1CCN(C2CCN(Cc3ccc(Cl)cc3)CC2)CC1 [compound 201] |

| IC50 | Compound |
| --- | --- |
| 0.025 to 0.1 µM | CC1(N2CCN(c3ncc(C(=O)NCC4CCCCC4)cc3Cl)CC2)CCN(Cc2ccc(Cl)cc2)CC1 [compound 202] |
| > 0.1 µM | Cc1cc(C(=O)NCC2CCCCC2)cnc1N1CCN(C2CCN(Cc3ccc(Cl)cc3)CC2)CC1 [compound 203] |
| 0.025 to 0.1 µM | C[C@H]1CN(c2ccc(C(=O)NCc3ccc(F)c(F)c3)cc2Cl)CCN1C1(C)CCN(Cc2ccc(Cl)cc2)CC1 [compound 204] |
| > 0.1 µM | CNC(=O)c1cnc(N2CCN(C3(C)CCN(Cc4ccc(Cl)cc4)CC3)[C@@H](C)C2)c(Cl)c1 [compound 205] |
| 0.025 to 0.1 µM | CC1(N2CCN(c3ncc(C(=O)NCc4ccc(Cl)c(Cl)c4)cc3Cl)CC2)CCN(Cc2ccc(Cl)cc2)CC1 [compound 206] |
| > 0.1 µM | CC1(N2CCN(c3ncc(C(=O)NCc4ccc(F)c(F)c4)cc3Cl)CC2)CCN(Cc2ccc(Cl)cc2)CC1 [compound 207] |
| > 0.1 µM | CCNC(=O)c1cnc(N2CCN(C3(CC)CCN(Cc4ccc(Cl)cc4)CC3)CC2)c(Cl)c1 [compound 208] |
| < 0.025 µM | CCNC(=O)c1cnc(N2CCN(C3CCN(Cc4ccc(Cl)cc4)CC3C)[C@@H](C)C2)c(Cl)c1 (stereo partly shown) [compound 209] |
| < 0.025 µM | CCNC(=O)c1cnc(N2CCN(C3CCN(Cc4ccc(Cl)cc4)CC3)[C@@H](C(C)C)C2)c(Cl)c1 [compound 210] |
| > 0.1 µM | CCNC(=O)c1cnc(N2CCN(C3CCN(C(=O)c4ccc(Cl)cc4)CC3)[C@@H](C(C)C)C2)c(Cl)c1 [compound 211] |
| < 0.025 µM | CCNC(=O)c1cnc(N2CCN(C3CCN(Cc4ccc(Cl)cc4F)CC3)[C@@H](CC)C2)c(Cl)c1 [compound 212] |
| < 0.025 µM | CCNC(=O)c1cnc(N2CCN(C3CCN(Cc4ccc(Cl)cc4)CC3)[C@@H](CC)C2)c(Cl)c1 [compound 213] |
| < 0.025 µM | CCNC(=O)c1cnc(N2C[C@H](CC)N(C3CCN(Cc4ccc(Cl)cc4)CC3)C[C@H]2C)c(Cl)c1 [compound 214] |
| < 0.025 µM | CC[C@H]1CN(c2ncc(C(=O)NC3CC3)cc2Cl)CCN1C1CCN(Cc2ccc(Cl)cc2F)CC1 [compound 215] |
| < 0.025 µM | CC[C@H]1CN(c2ncc(C(=O)NC(C)C)cc2Cl)CCN1C1CCN(Cc2ccc(Cl)cc2)CC1 [compound 216] |
| < 0.025 µM | CCNC(=O)c1cnc(N2C[C@H](CC)N(C3CCN(Cc4ccc(Cl)cc4F)CC3)C[C@H]2C)c(Cl)c1 [compound 217] |
| < 0.025 µM | CCNC(=O)c1cnc(N2CCN(C3CCN(Cc4ccc(I)cc4)CC3)[C@@H](CC)C2)c(Cl)c1 [compound 218] |
| < 0.025 µM | CC[C@H]1CN(c2ncc(C(=O)NC)cc2Cl)CCN1C1CCN(Cc2ccc(Br)cc2F)CC1 [compound 219] |
| < 0.025 µM | CCNC(=O)c1cnc(N2CCN(C3CCN(Cc4ccc(Cl)cc4)C(C)C3)[C@@H](CC)C2)c(Cl)c1 (stereo partly shown) [compound 220] |
| < 0.025 µM | CC[C@H]1CN(c2ncc(C(=O)NCc3ccc(F)c(F)c3)cc2Cl)CCN1C1CCN(Cc2ccc(Cl)cc2)CC1 [compound 221] |
| < 0.025 µM | C[C@H]1CN(c2ncc(C(=O)NCc3ccc(F)c(F)c3)cc2Br)CCN1C1CCN(Cc2ccc(Cl)cc2)CC1 [compound 222] |

same assay, conditions: value given in text as example

| IC50 | Compound |
| --- | --- |
| 0.0002 µM | CCNC(=O)c1cnc(N2CCN(C3CCN(Cc4ccc(Cl)cc4F)CC3)[C@@H](CC)C2)c(Cl)c1 [compound 212] |
